According to ChEMBL document CHEMBL1201862, “PubChem BioAssay data set” (2004):
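In this assay, cells in 96-well plates receive the compound at five concentrations for 48 hours. Endpoints are linearly interpolated between the surrounding concentrations. Here, GI50 denotes the concentration required for 50% inhibition of growth.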 Activity calls are given as the source filed them. Rule as the data show it: active = GI50 up to about 1.1 µM and inactive = higher.

Key:
Experiment in all cases: NCI anticancer screen, dose series, 48 h
SNB-19 = tested on: SNB-19
HOP-92 = tested on: HOP-92
SF-295 = tested on: SF-295
SR = tested on: SR
MDA-MB-435 = tested on: MDA-MB-435
LOX IMVI = tested on: LOX IMVI
786-0 = tested on: 786-0
NCI-H522 = tested on: NCI-H522
SF-268 = tested on: SF-268
RPMI-8226 = tested on: RPMI-8226
HL-60 = tested on: HL-60
HCC 2998 = tested on: HCC 2998
U-251 = tested on: U-251
OVCAR-3 = tested on: OVCAR-3
SK-MEL-2 = tested on: SK-MEL-2
HCT-15 = tested on: HCT-15
ACHN = tested on: ACHN
KM12 = tested on: KM12
MOLT-4 = tested on: MOLT-4
SNB-75 = tested on: SNB-75

Row | Compound | GI50 (SNB-19) | GI50 (HOP-92) | GI50 (SF-295) | GI50 (SR) | GI50 (MDA-MB-435) | GI50 (LOX IMVI) | GI50 (786-0) | GI50 (NCI-H522) | GI50 (SF-268) | GI50 (RPMI-8226) | GI50 (HL-60) | GI50 (HCC 2998) | GI50 (U-251) | GI50 (OVCAR-3) | GI50 (SK-MEL-2) | GI50 (HCT-15) [µM] | GI50 (ACHN) | GI50 (KM12) | GI50 (MOLT-4) | GI50 (SNB-75)
1 | CCCC(CC)c1c(O)c(O)c(C(CC)CCC)c(C(CC)CCC)c1C(CC)CCC (centres undefined) | > 10 µM (inactive) | > 10 µM (inactive) | > 10 µM (inactive) | > 10 µM (inactive) | > 10 µM (inactive) | > 10 µM (inactive) | > 10 µM (inactive) | > 10 µM (inactive) | > 10 µM (inactive) | > 10 µM (inactive) | > 10 µM (inactive) | > 10 µM (inactive) | > 10 µM (inactive) | > 10 µM (inactive) | > 10 µM (inactive) | > 10 | > 10 µM (inactive) | > 10 µM (inactive) |  | 
2 | O=c1c2cc(Cl)ccc2[nH]c2cc(O)cc(O)c12 | > 10 µM (inactive) | > 10 µM (inactive) | > 10 µM (inactive) | > 10 µM (inactive) | > 10 µM (inactive) |  | > 10 µM (inactive) | > 10 µM (inactive) | > 10 µM (inactive) | > 10 µM (inactive) | > 10 µM (inactive) | > 10 µM (inactive) | > 10 µM (inactive) | 8.55 µM (inactive) | > 10 µM (inactive) | > 10 | > 10 µM (inactive) | > 10 µM (inactive) | > 10 µM (inactive) | 2.95 µM (inactive)
3 | Cc1ccc(O)c(C2=CC(c3cccc(Cl)c3)SC(=N)N2)c1 (centres undefined) | 16.1 µM (inactive) | 10.8 µM (inactive) | 17.8 µM (inactive) | 17.3 µM (inactive) | 19 µM (inactive) | 18.6 µM (inactive) | 30.8 µM (inactive) | 16.1 µM (inactive) | 32.2 µM (inactive) | 17.7 µM (inactive) | 30 µM (inactive) | 16.1 µM (inactive) | 18.3 µM (inactive) | 29.5 µM (inactive) | 18.2 µM (inactive) | 18.9 | 24.2 µM (inactive) | 24.9 µM (inactive) | 19.1 µM (inactive) | 
4 | Cc1cc(C)c(N[S+]([O-])c2ccc(Cl)cc2)c(C)c1 (centres undefined) | > 100 µM (inactive) | 68.7 µM (inactive) | > 100 µM (inactive) | > 100 µM (inactive) | 51.5 µM (inactive) |  | > 100 µM (inactive) |  | > 100 µM (inactive) | > 100 µM (inactive) | > 100 µM (inactive) | 83.4 µM (inactive) | > 100 µM (inactive) | > 100 µM (inactive) |  | > 100 | > 100 µM (inactive) | > 100 µM (inactive) | > 100 µM (inactive) | 
5 | c1cc(-c2cscc2-c2ccsc2)cs1 |  | > 100 µM (inactive) | 83.4 µM (inactive) | 27.5 µM (inactive) | 36.4 µM (inactive) | 37.6 µM (inactive) | 72.1 µM (inactive) |  | 58.2 µM (inactive) | 34.9 µM (inactive) | 30.4 µM (inactive) | 27.4 µM (inactive) | > 100 µM (inactive) | 14.4 µM (inactive) | 4.65 µM (inactive) | 29.4 | > 100 µM (inactive) | 14.8 µM (inactive) | 30.1 µM (inactive) | 12.3 µM (inactive)
6 | COC(=O)C1(Cc2cccc(Cl)c2)CCCCCCN1C(=O)c1ccccc1 (centres undefined) | 15.1 µM (inactive) | 14.3 µM (inactive) | 6.98 µM (inactive) | 13.9 µM (inactive) | 18.9 µM (inactive) | 17.5 µM (inactive) | 13.2 µM (inactive) |  | 20.6 µM (inactive) | 6.7 µM (inactive) | 5.97 µM (inactive) | 13.6 µM (inactive) | 15.4 µM (inactive) | 6.71 µM (inactive) |  | 11.5 | 9.46 µM (inactive) |  | 8.89 µM (inactive) | 13 µM (inactive)
7 | COc1cc(/C=C2\N=C(c3ccccc3)N(c3ccc(C(=O)c4ccccc4)cc3N3C(=O)/C(=C/c4ccc(O)c(OC)c4)N=C3c3ccccc3)C2=O)ccc1O | 19.5 µM (inactive) | 22.7 µM (inactive) | 6.43 µM (inactive) | 3.85 µM (inactive) | 2.25 µM (inactive) | 10.5 µM (inactive) | 18.9 µM (inactive) |  | 15.3 µM (inactive) | 8.51 µM (inactive) | 5.09 µM (inactive) | 2.91 µM (inactive) | 9.79 µM (inactive) | 3.52 µM (inactive) | 13.4 µM (inactive) | 5.28 | 17.5 µM (inactive) | 8.73 µM (inactive) | 3.3 µM (inactive) | 18.8 µM (inactive)
8 | O=C1c2ccccc2C(=O)N1n1c(Cc2ccc([N+](=O)[O-])cc2)n[nH]c1=O | > 100 µM (inactive) | > 100 µM (inactive) | > 100 µM (inactive) | > 100 µM (inactive) | > 100 µM (inactive) |  | > 100 µM (inactive) | > 100 µM (inactive) | > 100 µM (inactive) | > 100 µM (inactive) |  | > 100 µM (inactive) | > 100 µM (inactive) | > 100 µM (inactive) | 75.2 µM (inactive) | > 100 | > 100 µM (inactive) | > 100 µM (inactive) | > 100 µM (inactive) | > 100 µM (inactive)
9 | CCCCc1ccc2[n+](c1)C(C(=O)OCC)=PC2 (centres undefined) |  | > 100 µM (inactive) | > 100 µM (inactive) | 32.7 µM (inactive) | > 100 µM (inactive) |  | 72.1 µM (inactive) | 54.2 µM (inactive) | > 100 µM (inactive) | 28.2 µM (inactive) | 40.7 µM (inactive) | > 100 µM (inactive) | 71.4 µM (inactive) | > 100 µM (inactive) |  | 39.6 | > 100 µM (inactive) | > 100 µM (inactive) | 37.5 µM (inactive) | 44.7 µM (inactive)
10 | Cc1cn(CCOCCOC(=O)NC(CCCNC(=N)N)C(=O)O)c(=O)[nH]c1=O (centres undefined) | > 100 µM (inactive) | > 100 µM (inactive) | > 100 µM (inactive) | > 100 µM (inactive) | > 100 µM (inactive) | > 100 µM (inactive) | > 100 µM (inactive) |  | > 100 µM (inactive) | > 100 µM (inactive) | > 100 µM (inactive) | > 100 µM (inactive) | > 100 µM (inactive) | > 100 µM (inactive) | > 100 µM (inactive) | > 100 | > 100 µM (inactive) | > 100 µM (inactive) | > 100 µM (inactive) | > 100 µM (inactive)
11 | O=C1C(=C(C(=O)c2ccccc2)C(=O)c2ccccc2)OC(c2ccccc2)=C1C(=O)c1ccccc1 | 10.2 µM (inactive) | 7.19 µM (inactive) | 4.79 µM (inactive) | 2.28 µM (inactive) | 8.2 µM (inactive) | 1.77 µM (inactive) | 3.51 µM (inactive) | 1.22 µM (inactive) | 3.8 µM (inactive) | 5.56 µM (inactive) | 6.84 µM (inactive) | 9.77 µM (inactive) | 4.46 µM (inactive) | 5.86 µM (inactive) | 10.8 µM (inactive) | 3.36 | 4.88 µM (inactive) | 5.5 µM (inactive) | 1.98 µM (inactive) | 
12 | Nc1nc(N)c2ncn(Cc3ccccc3CCl)c2n1 | > 100 µM (inactive) | > 100 µM (inactive) | > 100 µM (inactive) | 8.51 µM (inactive) | > 100 µM (inactive) |  | > 100 µM (inactive) | > 100 µM (inactive) | > 100 µM (inactive) | > 100 µM (inactive) | 0.115 µM (active) |  | > 100 µM (inactive) | > 100 µM (inactive) | > 100 µM (inactive) | > 100 | > 100 µM (inactive) | > 100 µM (inactive) | > 100 µM (inactive) | > 100 µM (inactive)
13 | CCc1c2c(cc3c1CC1(C3)Cc3cc4c(c(C(=O)OC)c3C1)CCCC4)CCCC2 (centres undefined) |  | > 100 µM (inactive) | > 100 µM (inactive) | 51.8 µM (inactive) | > 100 µM (inactive) | > 100 µM (inactive) | 12.1 µM (inactive) | > 100 µM (inactive) |  | > 100 µM (inactive) | 80.9 µM (inactive) | > 100 µM (inactive) | > 100 µM (inactive) | > 100 µM (inactive) | > 100 µM (inactive) | > 100 | > 100 µM (inactive) | > 100 µM (inactive) | 34.5 µM (inactive) | 
14 | O=CC1C[C@@H](N2C(=O)O[C@@H](c3ccccc3)[C@H]2c2ccccc2)[C@@H]1COCc1ccccc1 (some centres undefined) | 19.9 µM (inactive) | 15 µM (inactive) | 17.3 µM (inactive) | 10.3 µM (inactive) | 18.2 µM (inactive) | 17.7 µM (inactive) | 14.3 µM (inactive) | 16.4 µM (inactive) | 17.3 µM (inactive) | 17.9 µM (inactive) | 18.9 µM (inactive) | 15 µM (inactive) | 16.6 µM (inactive) | 14.8 µM (inactive) | 16.4 µM (inactive) | 18 | 24.8 µM (inactive) | 43.5 µM (inactive) | 6.04 µM (inactive) | 
15 | CC(C)SC(C)(NC(=O)C1C(C)(C)CCC1(C)C)C(=O)O (centres undefined) | > 100 µM (inactive) | > 100 µM (inactive) |  | > 100 µM (inactive) | > 100 µM (inactive) | > 100 µM (inactive) | > 100 µM (inactive) |  | > 100 µM (inactive) | > 100 µM (inactive) | > 100 µM (inactive) | > 100 µM (inactive) | > 100 µM (inactive) |  | > 100 µM (inactive) | > 100 | > 100 µM (inactive) |  | > 100 µM (inactive) | > 100 µM (inactive)
